One compound from PubChem BioAssay AID1794821 can be followed below.

The target of this test is Sodium/hydrogen exchanger 9B2 (Homo sapiens) (UniProt Q86UD5). As to the kind of experiment: SLC9B2 inhibition via intracellular pH change, dose response, cell-based, pHluorin biosensor fluorescence, HEK-293, SLC9B2 overexpression (AID 1794821). Particulars: HEK-293 SLC9B2 OE.

pIC50: −log10 of the molar value.

Chain of Sodium/hydrogen exchanger 9B2 (Homo sapiens) (Q86UD5 whole entry, looked up): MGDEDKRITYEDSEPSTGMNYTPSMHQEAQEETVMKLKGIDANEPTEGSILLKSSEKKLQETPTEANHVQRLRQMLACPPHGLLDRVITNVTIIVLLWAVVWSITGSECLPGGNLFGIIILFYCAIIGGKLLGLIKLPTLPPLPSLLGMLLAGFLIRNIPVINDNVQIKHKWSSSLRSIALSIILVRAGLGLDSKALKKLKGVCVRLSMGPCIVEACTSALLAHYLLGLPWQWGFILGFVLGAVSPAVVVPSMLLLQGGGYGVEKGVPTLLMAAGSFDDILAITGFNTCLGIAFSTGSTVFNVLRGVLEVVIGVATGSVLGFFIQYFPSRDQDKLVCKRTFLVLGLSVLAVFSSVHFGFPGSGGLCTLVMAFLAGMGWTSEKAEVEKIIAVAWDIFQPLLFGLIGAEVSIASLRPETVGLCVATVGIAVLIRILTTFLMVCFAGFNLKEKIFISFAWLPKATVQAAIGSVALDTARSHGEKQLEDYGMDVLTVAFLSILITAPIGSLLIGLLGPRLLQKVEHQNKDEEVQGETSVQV

Turning to `O=C(CCc1ccc(O)cc1)c1c(O)cc(O)cc1O`, the pIC50 (commonly −log10 of the IC50, conventionally taken in molar units) was 4.05.
